From article PMC4519333, “Preclinical Evaluation of a Potential GSH Ester Based PET/SPECT Imaging Probe DT(GSHMe)2 to Detect Gamma Glutamyl Transferase Over Expressing Tumors” (PLoS ONE, 2015)
Read-outs that look alike come from different tables or passages of the source.

What was measured:
[1] = test system: athymic mice bearing BMG-1 tumors; assay: Micro PET/CT small animal imaging with ROI analysis; assay type: in vivo; conditions: blocking dose ~5 mg/Kg native GSH, PET 2 h post injection, BMG-1 tumor
Experimental: (§1) Athymic male mice were xenografted with BMG-1 human tumor cell line (0.1 mL of cell suspension containing ~5 ×10^6 BMG cells) in the flank region of the hind limb. BALB/c mice were inoculated with EAT murine tumor cells (5–6 × 10^6) in the flank region of the right hind limb. An inflammation lesion was induced in the fore limb by intramuscular injection of turpentine oil (100 μL) 48 h before imaging. For Scintigraphy, (n = 6) mice used for imaging, biodistribution studies (n = 32 mice) for two experiments 4 mice/group for 4 time points and blood kinetics (n = 18).
(§2) Xenografted experimental models were intravenously administered 0.1mg/Kg body weight ^68Ga-DT(GSHMe)2 (37 ± 2.2 MBq) and 0.25 mg/Kg Body weight ^99mTc-DT(GSHMe)2 (29.6 ± 1.8 MBq) via tail vein for PET and SPECT respectively. Blocking dose of ~ 5 mg/Kg body weight of GSH was administered intravenously in the experimental animal. The acquisition was performed 2 h post injection. The ratios were calculated from counts per pixel of individual ROI (Region of interest) for semi-quantitative analysis to understand the distribution and localization.

in vivo [2] = assay: in vivo; set-up: species or system mice; conditions: BALB/c, mouse, iv, 0.1 mg/kg body weight, total radioactivity
Experimental: Biodistribution studies were also performed on tumor bearing BALB/c mice. 0.1 mg/Kg body weight ^68Ga-DT(GSHMe)2 (~25 ± 1.5 MBq) was injected through tail vein and at different time points viz., 30 min, 1 and 2 h animals were sacrificed and organs were dissected out. Uptake of radioactivity in individual organ is noted and %ID/g is then calculated.

[3] = test system: BALB/c mice bearing EAT tumor and turpentine oil inflammation; assay: SPECT imaging, tumor versus inflammation; assay type: in vivo; conditions: 2 h post i.v., EAT tumor hind limb, inflammation fore limb
Experimental: as §1, §2

EAT cells = assay: Time course and kinetics of uptake; assay type: cell-based, mice
Experimental: EAT cells were isolated from ascitic fluid of BALB/c mice and were diluted to 3 x 10^6 cells/mL. Cells were aliquoted in different micro centrifuge tubes and were treated with 200 μM of ^99mTc-DT(GSHMe)2 for different time intervals (0, 10, 30 sec, 1, 2, 5, 10, 30 min, 1 and 2 h). After the treatment, cells were centrifuged at 2000 rpm for 5 min and supernatant was carefully removed. Followed by three washes of cold saline and acidic wash buffer, cells were centrifuged to yield the pellet. The pellet was dissolved in 500 μL of lysis buffer. The amount of radioactivity (CPM) in cell lysate was determined by gamma counter. Later, after the activity decayed, total protein from the cells was estimated by BCA method of protein estimation. Absorbance values were determined at 595 nm on a multi plate reader. A standard plot was constructed taking various dilutions of BSA. Drug uptake was calculated and plotted.

in vivo [4] = assay: in vivo; set-up: species or system mice; conditions: BALB/c, mouse, iv, 0.25 mg/kg body weight, total radioactivity
Experimental: Radiolabeled ^99mTc-DT(GSHMe)2 (0.25 mg/Kg body weight) in a volume of 150 μL (11.1 ± 1.2 MBq) was carefully injected through the tail vein of each BALB/c mice xenografted with EAT Tumors in the hind limb. At 30 min, 1, 2 and 4 h post injection mice were sacrificed and different organs and tissues were dissected out. All the organs and tissues were rinsed in saline, weighed and counted in a gamma counter. Uptake of the radiotracer in each tissue was calculated and expressed as a percentage injected dose per gram of the tissue (% ID/g) and corrected for ^99mTc decay.

[5] = target: T1, GGT on the surface of EAT cells (Mus musculus, UniProt Q60928); assay: Cell binding studies on EAT cells (Scatchard); set-up: species or system mice; conditions: 2 h, 37°C, Scatchard plot
T1 construct: endogenous in cells; host or cells: Ehrlich Ascites tumor (EAT) cells, strain F-3, passaged in BALB/c mice
T1 sequence (Q60928 1-379 limits assumed): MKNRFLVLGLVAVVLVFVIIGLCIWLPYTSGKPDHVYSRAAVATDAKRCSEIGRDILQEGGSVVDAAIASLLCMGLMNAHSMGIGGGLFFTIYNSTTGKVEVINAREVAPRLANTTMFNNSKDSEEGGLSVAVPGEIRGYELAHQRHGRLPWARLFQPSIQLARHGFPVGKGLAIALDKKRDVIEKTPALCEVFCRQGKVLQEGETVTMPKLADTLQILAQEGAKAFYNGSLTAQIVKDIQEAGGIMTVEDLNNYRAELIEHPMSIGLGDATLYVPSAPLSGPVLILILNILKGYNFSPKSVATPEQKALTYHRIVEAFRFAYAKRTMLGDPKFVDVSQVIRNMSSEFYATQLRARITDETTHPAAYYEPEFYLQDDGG
T1 sequence (Q60928 380-568 limits assumed): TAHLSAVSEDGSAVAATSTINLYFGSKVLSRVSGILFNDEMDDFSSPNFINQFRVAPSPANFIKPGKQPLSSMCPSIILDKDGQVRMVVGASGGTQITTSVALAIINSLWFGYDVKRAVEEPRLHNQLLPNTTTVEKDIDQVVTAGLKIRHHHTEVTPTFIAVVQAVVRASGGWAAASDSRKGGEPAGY
Experimental: (§3) The specificity of ^99[…])2 to bind externally on tumor cells were examined by receptor binding assays on EAT cells isolated from the ascitic fluid of BALB/c Mice. Cells were diluted to 2 x 10^6 cells per mL and were aliquoted in different micro centrifuge tubes. Cells were washed twice with HBSS and finally resuspended in 1 mL of HBSS. Cells were then treated with various concentration of ^99[…]) for 2 h at 37°C. […] Specific binding was obtained by subtracting nonspecific binding from total binding. At the end of each incubation time, the cells were washed with cold PBS twice and pelleted down. Finally, cells were lysed and cell-associated radioactivity was determined by gamma counting. The total protein content of cells was estimated by Bicinchoninic acid (BCA) method. Similarly the binding experiments were performed on monolayer of BMG-1 cells (2 x 10^6) and were treated with ^99[…]) for 2 h at 37°C. […] Cells were lysed and cell associated radioactivity was determined. The total protein content was determined by BCA method. Scatchard Plot were plotted to determine Kd and Bmax.

[6] = Log P calculation (octanol/PBS partition); assay type: physicochemical
Experimental: The value of partition coefficient of radiolabeled […] calculated and expressed as log P. The radiolabeled […] passed through 0.22 μ filter and approximately 10.2 ± 1.5 MBq of labeled compound was diluted in PBS, pH 7.4. To this equal volume of 1-octanol was added. The mixture was thoroughly vortexed for 10 min and then centrifuged at 5000 rpm for 5 min. […] The measurement was repeated thrice. The partition coefficient (P) was calculated using the following equation wherein, P = (counts in octanol fraction) / (counts in PBS fraction). For each value of P, log P value is calculated.

[7] = target: T2, GGT on the surface of BMG-1 cells (Homo sapiens, UniProt P19440); assay: Cell binding studies on BMG-1 cells (Scatchard); conditions: 2 h, 37°C, Scatchard plot
T2 construct: endogenous in cells; host or cells: BMG-1 cerebral glioma cells (monolayer)
T2 sequence (P19440 1-380 limits assumed): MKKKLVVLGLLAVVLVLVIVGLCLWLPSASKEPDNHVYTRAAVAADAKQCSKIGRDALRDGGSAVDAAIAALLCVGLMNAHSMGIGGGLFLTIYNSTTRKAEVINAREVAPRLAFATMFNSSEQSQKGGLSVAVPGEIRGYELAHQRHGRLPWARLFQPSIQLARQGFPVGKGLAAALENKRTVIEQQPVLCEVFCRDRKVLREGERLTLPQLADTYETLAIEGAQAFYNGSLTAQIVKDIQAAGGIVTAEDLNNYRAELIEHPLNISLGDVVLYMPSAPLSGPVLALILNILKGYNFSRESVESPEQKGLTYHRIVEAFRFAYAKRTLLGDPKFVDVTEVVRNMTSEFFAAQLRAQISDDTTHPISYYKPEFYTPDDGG
T2 sequence (P19440 381-569 limits assumed): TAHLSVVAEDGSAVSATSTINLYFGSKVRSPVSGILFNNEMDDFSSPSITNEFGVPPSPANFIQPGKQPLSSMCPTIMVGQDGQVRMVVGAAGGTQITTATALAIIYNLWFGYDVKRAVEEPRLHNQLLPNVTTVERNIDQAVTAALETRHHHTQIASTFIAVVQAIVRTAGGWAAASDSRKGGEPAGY
Experimental: as §3

[8] = set-up: species or system mice; conditions: mouse, in vivo, iv
Experimental: Blood clearance was performed to observe the rate of clearance of drug post administration. Radiolabeled conjugate 0.25 mg/Kg body weight of ^99mTc-DT(GSHMe)2 (22.2 ± 2.8 MBq) was administered intravenously through the tail vein of the mice. Blood samples were withdrawn at different time intervals (5, 15, 30 min, 1, 2 and 24 h). Decay corrected radioactivity is expressed as % ID, assuming a weight based theoretical blood volume as 7% of the body weight.

cell lines [9] = assay: Sulfo rhodamine B (SRB) assay (cytotoxicity); assay type: cell-based
Experimental: SRB assay was performed to estimate the cytotoxicity of DT(GSHMe)2. SRB binds to total protein content of the cells and is independent of metabolic activity. Cells were seeded at the density of 6000 cells per well in 96 well microtiter plate. Cells were treated with varying concentration of DT(GSHMe)2 from 0.001 μM-1000 μM for different time intervals (24, 48 and 72 h). At each time point, 100 μL of ice cold 10% (wt/vol) trichloroacetic acid (TCA) was added to each well and were incubated for 1 h at 4°C followed by washing the plate four times under running tap water. Plates were then air dried and 100 μL of 0.057% SRB solution was added in each well for 30 min. Plates were quickly rinsed four times with 1% (v/v) acetic acid and air dried. To develop color, 200 μL of 10 mM Tris base solution (pH 10.5) was added to each well and kept on gyratory shaker for 5 min. The color intensity was measured fluorometrically at excitation 488 nm and emission at 585 nm. Surviving fraction was calculated and plotted for the concentration range 0.001 μM-1000 μM as a function of time.

BMG-1 cells = assay: Cell cycle analysis by flow cytometry (PI); assay type: cell-based, human
Experimental: 10^5 cells per well were plated in a Petri dishes and kept in the incubator overnight at 37°C. Following day, cells were treated with different drug concentrations (0.01 μM –1000 μM). At specific time points, media was carefully removed and cells were harvested in micro centrifuge tubes. Cells were centrifuged at 1200 rpm for 6 min. Supernatant was removed and 700 μL of 80% cold ethanol was added drop wise. Pellet was uniformly dispersed and samples were stored at 4°C for at least 24 h. Samples were centrifuged to remove supernatant and RNAse at a final concentration of 0.5 mg/mL was added to the pellet and incubated at 37°C for 1 h. Finally Propidium Iodide (PI) solution at a final concentration of 10μg/mL was added and the samples were analyzed by flow cytometry.

[10] = In vivo total glutathione estimation from tumor, RBC and plasma; set-up: species or system BALB/c mice bearing EA tumors; conditions: n = 3
Experimental: Levels of total Glutathione (GSH/GSSG) were estimated from tumor, RBC and plasma isolated from BALB/c mice bearing EA tumors, after injection of unlabeled 100 μM DT(GSHMe)2 (100 μL). At time points (15 min, 30 min, 1, 2and 4 h), blood samples were withdrawn and tumors were excised. Tumors were homogenized in 3 volumes of 5% sulfosalicylic acid (SSA) and centrifuged at 10,000 x g for 10 min at 4°C. Blood was centrifuged and the plasma fraction was separated from RBC pellet. To each RBC and plasma fractions, equal volume of 5% SSA was added, followed by vortexing and centrifugation at 10,000 x g for 10 min at 4°C. Supernatant was collected and used for estimating total glutathione levels.

cell lines [11] = assay: MTT assay (cytotoxicity); assay type: cell-based
Experimental: To confirm the results from SRB assay, MTT assay which measures cell metabolic activity was performed to correlate the results obtained using SRB assay. Exponentially growing cells were plated in a 96 well microtitre plate at a cell density of 4000 cells per well 24 h before treatment. Cells were treated with varying concentrations of the drug for different time intervals (24, 48, and 72 h). At the end of treatment, both the treated cells and untreated control were incubated with MTT at final concentration of 0.1mg/mL for 3 h at 37°C and the medium was removed thereafter. Cells from each treatment were lysed and the formazan crystals were dissolved using 150 μL of DMSO for 30 min. Optical density of extracts at 570 nm was measured (reference filter: 630 nm). Surviving fraction was determined and was plotted against concentration as a function of time.

[12] = 0.25 h after injection of 100 μM unlabeled compound

## CCOC(=O)CNC(=O)[C@H](CS)NC(=O)CC[C@H](NC(=O)CN(CCN(CCN(CC(=O)O)CC(=O)N[C@@H](CCC(=O)N[C@@H](CS)C(=O)NCC(=O)OCC)C(=O)O)CC(=O)O)CC(=O)O)C(=O)O [68Ga-DT(GSHMe)2, metal not drawn]
[1]
  block of uptake at tumor site by GSH: 95.57%
In vivo [2]
  tissue to tissue ratio at 2 h: 26.4

## CCOC(=O)CNC(=O)[C@H](CS)NC(=O)CC[C@H](NC(=O)CN(CCN(CCN(CC(=O)O)CC(=O)N[C@@H](CCC(=O)N[C@@H](CS)C(=O)NCC(=O)OCC)C(=O)O)CC(=O)O)CC(=O)O)C(=O)O [99mTc-DT(GSHMe)2, metal not drawn]
[3]
  tracer localisation tumor versus inflammation: substantial amount of radiotracer concentration at tumor site
EAT cells
  maximal transport rate velocity (Vmax): 0.478 µM/min
EAT cells; Eadie-Hofstee, read-out: Michaelis constant (Km) of transport
  Km: 2.25 µM
In vivo [4]
  tissue to tissue ratio at 2 h: 24
[5]
  Bmax: 91.02 nM
[6]; pH 7.4
  logD: -1.31 ± 0.104
[7]
  Bmax: 17.2 nM
[8]
  biological half-life t1/2 (Slow): 15.44
  t1/2 slow: 15.44 h
[8]; 0.25 mg/kg
  biological half-life t1/2 (Fast): 8.8 min

## CCOC(=O)CNC(=O)[C@H](CS)NC(=O)CC[C@H](NC(=O)CN(CCN(CCN(CC(=O)O)CC(=O)N[C@@H](CCC(=O)N[C@@H](CS)C(=O)NCC(=O)OCC)C(=O)O)CC(=O)O)CC(=O)O)C(=O)O [DT(GSHMe)2, Diethylene triaminpentaacetic acid bis glutathione monoethylester]
Cell lines [9]; 1000 μM, 72 h
  cell population remained viable: 11.57 ± 3.84%
Cell lines [9]; cell line not stated, read-out: IC50 (nearly 50% cell lysis)
  IC50: ~500 µM
Cell lines [9]; lower concentration (below 100 μM)
  toxicity: nontoxic
BMG-1 cells; BMG-1, 1 μM, 24 h
  G1 cell population: 83.2 ± 4.16%
BMG-1 cells; BMG-1, 1000 μM, 24 h
  G1 cell population: 49.5 ± 2.47%
  increase of apoptotic cells versus control: approximately 14 folds
BMG-1 cells; BMG-1, 1000 μM, 24 h treatment
  apoptotic cells: 23.4 ± 1.17%
[10]; [12]
  Plasma total glutathione: 0.13 ± 0.029 μmoles of GSH/ml
  RBC total glutathione: 0.38 ± 0.021 μmoles of GSH/ml
  Tumor total glutathione: 3 ± 0.007 μmoles of GSH/g tissue weight
[10]; 0.5 h after injection
  Plasma total glutathione: 0.16 ± 0.028 μmoles of GSH/ml
  RBC total glutathione: 0.39 ± 0.026 μmoles of GSH/ml
  Tumor total glutathione: 4.3 ± 0.019 μmoles of GSH/g tissue weight
[10]; 1 h after injection
  Plasma total glutathione: 0.28 ± 0.127 μmoles of GSH/ml
  RBC total glutathione: 0.45 ± 0.010 μmoles of GSH/ml
  Tumor total glutathione: 4.5 ± 0.070 μmoles of GSH/g tissue weight
[10]; 2 h after injection
  Plasma total glutathione: 0.32 ± 0.155 μmoles of GSH/ml
  RBC total glutathione: 0.5 ± 0.11 μmoles of GSH/ml
  Tumor total glutathione: 4.9 ± 0.010 μmoles of GSH/g tissue weight
[10]; 4 h after injection
  Plasma total glutathione: 0.23 ± 0.041 μmoles of GSH/ml
  RBC total glutathione: 0.39 ± 0.001 μmoles of GSH/ml
  Tumor total glutathione: 4.1 ± 0.010 μmoles of GSH/g tissue weight
Cell lines [11]; 100 μM concentration, in vitro evaluations on cell lines
  toxicity on cell lines: minimal toxicity
Cell lines [11]; MTT, lower concentration (below 100 μM), 24-72 h
  toxicity: nontoxic

## N[C@@H](CCC(=O)N[C@@H](CS)C(=O)NCC(=O)O)C(=O)O [glutathione, Glutathione, reference compound]
[6]; shake-flask 1-octanol/PBS pH 7.4, equal volumes, vortexed 10 min, centrifuged 5000 rpm 5 min, gamma counter, repeated thrice, read-out: Log P
  logD: -3.23 ± 0.141
